From patent US5084082A, “Soybean plants with dominant selectable trait for herbicide resistance” (priority 1990, dated 1992)

Assays:
Format in all cases: in vivo, soybean
W20 = experiment: Test C preemergence (soil) sulfonylurea application; conditions: 19 days after treatment
Text: (§1) W20, a line homozygous for a dominant sulfonylurea-resistance mutation, was compared to Williams 82 in terms of response to preemergence application of three sulfonylurea herbicides. The experimental unit consisted of a single 18 cm pot filled with soil (Sassafras loamy sand with 0.8% organic matter and pH 6.7) in which 6 seeds of a given soybean line were planted 2 cm deep. After planting, each pot was sprayed (using a conveyor belt spray apparatus to emulate field application) with one of 22 different treatments including a check sprayed with AGWT (90% acetone, 4% glycerol, 4% water, 2% Tween-20), and 21 different herbicide treatments using AGWT as a carrier. The herbicide treatments included 7 different concentrations (Table IX) each of three sulfonyl-ureas: Compound 5, Compound 4, and Compound 1. Each herbicide x line treatment was replicated three times. After herbicide treatment, pots were transferred to a greenhouse and arranged in a randomized complete block design. Nineteen days after treatment, each pot was rated visually for herbicide injury using the scale described previously. For each herbicide, analysis of variance on injury ratings was performed separately. Fisher's least significant difference (LSD) was used to determine the significance of line mean differences at each rate using the 95% level of confidence.

Williams 82 [1] = experiment: as above; conditions: 19 days after treatment
Text: as §1

mutant line W20 = experiment: Test B postemergence cross resistance test; conditions: Glycine max, post-emergence; for percent crop injury at 16 g/ha: W20, 16 g/ha postemergence; for percent crop injury at 64 g/ha: W20, 64 g/ha postemergence
Text: (§2) In the second postemergence test, six true-breeding resistant mutant lines (W4, W17, W19, W20, W23, and W28) were compared to Williams 82 for cross resistance to a broad range of ALS inhibitors including eight sulfonylureas and three imidazolinones. Two seeds were planted in each 10 cm pot and allowed to grow to the second trifoliolate stage. Pots were not thinned back if both plants were at the proper stage. For each of 11 herbicides, two rates (Table VII) were selected based on previous data: the low rate was expected to cause significant injury (but not death) to Williams 82 and the high rate was expected to severely injure or kill Williams 82. All but a few line x rate treatments were replicated twice.
In both postemergence tests, plants were returned to the greenhouse after treatment and provided with ample light, moisture, and nutrients to support healthy plant growth. Two to three ratings per pot were recorded over a three-week period and averaged to obtain a single value for each pot For each herbicide, analysis of variance on injury ratings was performed separately. Fisher's least significant difference (LSD) was used to determine the significance of line mean differences at each herbicide rate using the 95% level of confidence.

mutant line W23 = experiment: Test B postemergence cross resistance test; conditions: Glycine max, post-emergence; for percent soybean injury at 16 g/ha: W23, 16 g/ha postemergence; for percent soybean injury at 64 g/ha: W23, 64 g/ha postemergence
Text: as §2
(§3) In both postemergence tests, plants were returned to the greenhouse after treatment and provided with ample light, moisture, and nutrients to support healthy plant growth. Two to three ratings per pot were recorded over a three-week period and averaged to obtain a single value for each pot For each herbicide, analysis of variance on injury ratings was performed separately. Fisher's least significant difference (LSD) was used to determine the significance of line mean differences at each herbicide rate using the 95% level of confidence. […]

mutant line W19 = experiment: Test B postemergence cross resistance test; conditions: Glycine max, post-emergence; for percent soybean crop injury at 16 g/ha: W19, 16 g/ha postemergence; for percent soybean crop injury at 64 g/ha: W19, 64 g/ha postemergence
Text: as §2, §3

mutant line W28 = experiment: Test B postemergence cross resistance test; conditions: Glycine max, post-emergence; for mean % injury to soybean at 16 g/ha: W28, 16 g/ha postemergence; for mean % injury to soybean at 64 g/ha: W28, 64 g/ha postemergence
Text: as §2, §3

Williams 82 [2] = experiment: Test B postemergence cross resistance test; conditions: Glycine max, post-emergence, read-out: mean % injury
Text: as §2, §3

mutant line W17 = experiment: Test B postemergence cross resistance test; conditions: Glycine max, post-emergence; for soybean crop injury (%) at 16 g/ha: W17, 16 g/ha postemergence; for soybean crop injury (%) at 64 g/ha: W17, 64 g/ha postemergence
Text: as §2, §3

mutant line W4 = experiment: Test B postemergence cross resistance test; conditions: Glycine max, post-emergence; for % crop injury at 16 g/ha: W4, 16 g/ha postemergence; for % crop injury at 64 g/ha: W4, 64 g/ha postemergence
Text: as §2, §3

Mutant W4-4 = experiment: Postemergence herbicide spray test of W4-4 (Table VII-A); conditions: two weeks after treatment
Protocol: (§4) To investigate this hypothesis, a postemergence herbicide spray test was conducted to compare the reaction of W4-4 to both W20 and wild-type Williams. The applicant was particularly interested in the resistance of W4-4 to herbicide treatments that were injurious to both Williams and W20 in a previous test (Table VII). […] Twenty-four plants each of W4-4, W20, and Williams were planted in separate 10 cm pots and allowed to grow to the second trifoliolate stage. Each pot constituted a single experimental unit receiving a single herbicide treatment. Herbicide treatments (Table VIIA) were applied as described for the first postemergence test and were replicated twice. Control plants were sprayed with the spray carrier solution only (water with 0.25% X77 surfactant). At two weeks after treatment, each plant was rated for % herbicide injury as described in Table VIII. Analysis of variance on injury ratings was performed separately for each herbicide to calculate treatment means and standard errors. Fisher's least significant difference (LSD) was used to determine the significance of line means differences at each herbicide rate using the 95% level of confidence. […]

mutant W20 = experiment: as above; conditions: two weeks after treatment
Protocol: as §4

Williams 82 [3] = experiment: as above; conditions: two weeks after treatment
Protocol: as §4

## COC(=O)c1ccccc1S(=O)(=O)NC(=O)Nc1nc(C)cc(C)n1 [Compound 4, Methyl 2-[[[[(4,6-dimethyl-2-pyrimidinyl)amino]carbonyl]amino]sulfonyl]benzoate]
W20; W20, 0.3 g/ha preemergence
  % Injury: 0%
W20; W20, 1 g/ha preemergence
  % Injury: 0%
W20; W20, 3 g/ha preemergence
  % Injury: 0%
W20; W20, 10 g/ha preemergence
  % Injury: 17%
W20; W20, 30 g/ha preemergence
  % Injury: 68%
W20; W20, 100 g/ha preemergence
  % Injury: 90%
W20; W20, 300 g/ha preemergence
  % Injury: 95%
Williams 82 [1]; WM 82, 0.3 g/ha preemergence
  % Injury: 33%
Williams 82 [1]; WM 82, 1 g/ha preemergence
  % Injury: 55%
Williams 82 [1]; WM 82, 3 g/ha preemergence
  % Injury: 88%
Williams 82 [1]; WM 82, 10 g/ha preemergence
  % Injury: 97%
Williams 82 [1]; WM 82, 30 g/ha preemergence
  % Injury: 98%
Williams 82 [1]; WM 82, 100 g/ha preemergence
  % Injury: 100%
Williams 82 [1]; WM 82, 300 g/ha preemergence
  % Injury: 100%
Mutant line W20; W20, 0.5 g/ha postemergence
  percent crop injury at 0.5 g/ha: 0%
Mutant line W20; W20, 2 g/ha postemergence
  percent crop injury at 2 g/ha: 6%
Mutant line W23; W23, 0.5 g/ha postemergence
  percent soybean injury at 0.5 g/ha: 8%
Mutant line W23; W23, 2 g/ha postemergence
  percent soybean injury at 2 g/ha: 11%
Mutant line W19; W19, 0.5 g/ha postemergence
  percent soybean crop injury at 0.5 g/ha: 3%
Mutant line W19; W19, 2 g/ha postemergence
  percent soybean crop injury at 2 g/ha: 18%
Mutant line W28; W28, 0.5 g/ha postemergence
  mean % injury to soybean at 0.5 g/ha: 0%
Mutant line W28; W28, 2 g/ha postemergence
  mean % injury to soybean at 2 g/ha: 18%
Williams 82 [2]
  pest or weed control at 0.5 g/ha: 58%
  pest or weed control at 2 g/ha: 95%
Mutant line W17; W17, 0.5 g/ha postemergence
  soybean crop injury (%) at 0.5 g/ha: 3%
Mutant line W17; W17, 2 g/ha postemergence
  soybean crop injury (%) at 2 g/ha: 0%
Mutant line W4; W4, 0.5 g/ha postemergence
  % crop injury at 0.5 g/ha: 10%
Mutant line W4; W4, 2 g/ha postemergence
  % crop injury at 2 g/ha: 8%

## CCOC(=O)c1ccccc1S(=O)(=O)NC(=O)Nc1nc(Cl)cc(OC)n1 [Compound 5, Ethyl 2[[[[(4-chloro-6-methoxy-2-pyrimidinyl)amino]carbonyl]amino]sulfonyl]benzoate]
W20; W20, 1 g/ha preemergence
  % Injury: 0%
W20; W20, 3 g/ha preemergence
  % Injury: 0%
W20; W20, 10 g/ha preemergence
  % Injury: 0%
W20; W20, 30 g/ha preemergence
  % Injury: 3%
W20; W20, 100 g/ha preemergence
  % Injury: 10%
W20; W20, 300 g/ha preemergence
  % Injury: 15%
W20; W20, 1000 g/ha preemergence
  % Injury: 35%
Williams 82 [1]; WM 82, 1 g/ha preemergence
  % Injury: 0%
Williams 82 [1]; WM 82, 3 g/ha preemergence
  % Injury: 0%
Williams 82 [1]; WM 82, 10 g/ha preemergence
  % Injury: 0%
Williams 82 [1]; WM 82, 30 g/ha preemergence
  % Injury: 15%
Williams 82 [1]; WM 82, 100 g/ha preemergence
  % Injury: 47%
Williams 82 [1]; WM 82, 300 g/ha preemergence
  % Injury: 68%
Williams 82 [1]; WM 82, 1000 g/ha preemergence
  % Injury: 92%
Mutant line W20
  percent crop injury at 16 g/ha: 0%
  percent crop injury at 64 g/ha: 0%
Mutant line W23
  percent soybean injury at 16 g/ha: 0%
  percent soybean injury at 64 g/ha: 10%
Mutant line W19
  percent soybean crop injury at 16 g/ha: 0%
  percent soybean crop injury at 64 g/ha: 20%
Mutant line W28
  mean % injury to soybean at 16 g/ha: 0%
  mean % injury to soybean at 64 g/ha: 0%
Williams 82 [2]
  pest or weed control at 16 g/ha: 40%
  pest or weed control at 64 g/ha: 58%
Mutant line W17
  soybean crop injury (%) at 16 g/ha: 0%
  soybean crop injury (%) at 64 g/ha: 0%
Mutant line W4
  % crop injury at 16 g/ha: 6%
  % crop injury at 64 g/ha: 0%

## COc1cc(OC)nc(NC(=O)NS(=O)(=O)c2ncccc2C(=O)N(C)C)n1 [Compound 6, 2-[[[[(4,6-dimethoxy-2-pyrimidinyl)amino]carbonyl]amino]sulfonyl]N,N-dimethyl-3-pyridinecarboxamide]
Mutant line W20
  percent crop injury at 16 g/ha: 3%
  percent crop injury at 64 g/ha: 38%
Mutant line W23
  percent soybean injury at 16 g/ha: 5%
  percent soybean injury at 64 g/ha: 54%
Mutant line W19
  percent soybean crop injury at 16 g/ha: 8%
  percent soybean crop injury at 64 g/ha: 48%
Mutant line W28
  mean % injury to soybean at 16 g/ha: 0%
  mean % injury to soybean at 64 g/ha: 45%
Williams 82 [2]
  pest or weed control at 16 g/ha: 25%
  pest or weed control at 64 g/ha: 66%
Mutant line W17
  soybean crop injury (%) at 16 g/ha: 0%
  soybean crop injury (%) at 64 g/ha: 40%
Mutant line W4
  % crop injury at 16 g/ha: 4%
  % crop injury at 64 g/ha: 43%
Mutant W4-4; W4-4, 64 g/ha postemergence
  mean % injury: 0%
Mutant W4-4; W4-4, 125 g/ha postemergence
  mean % injury: 8%
Mutant W20; W20, 64 g/ha postemergence
  mean % injury: 10%
Mutant W20; W20, 125 g/ha postemergence
  mean % injury: 28%
Williams 82 [3]; WM82, 64 g/ha postemergence
  mean % injury: 60%
Williams 82 [3]; WM82, 125 g/ha postemergence
  mean % injury: 68%
